Data set [1] addresses T1, Sigma non-opioid intracellular receptor 1 (Cavia porcellus, UniProt Q60492). The experiment in a line: Displacement of [3H]-pentazocine from sigma1 receptor in guinea pig brain membrane at 1 uM by liquid scintillation counting analysis relative to control. It counts as cell membranes. A general note: In a radioligand displacement assay an active substance lowers the binding of a labelled ligand.

The subject of data set [2] is Mus musculus. The experiment in a line: Reversal of morphine tolerance in morphine tolerant C57BL/6J mouse assessed as maximum possible effect of antinociception at 30 mg/kg, ip pre-treated with morphine followed by compound addition on day 4 by hot plate test (reference value: 5.4%). It counts as functional.
Data set [3] deals with Mus musculus. The experiment in a line: Synergistic antinociceptive activity in C57BL/6J mouse assessed as reduction in morphine-induced nociceptive response upto 60 mg/kg, ip pre-administered with compound followed by morphine addition measured after 30 mins by hot plate test. In kind it is functional, organism-based. In general terms: In hot-plate and tail-flick tests a longer latency is read as antinociception.

The test system of data set [4] is Mus musculus. The experiment in a line: Antinociceptive activity in C57BL/6J mouse assessed as reduction in morphine-induced nociceptive response by measuring morphine ED50 at 30 mg/kg, ip pre-administered with compound followed by morphine addition measured after 30 mins by hot plate test (reference value: 4.3 mg/kg). It counts as functional.
Data set [5] has as its system Mus musculus. Nature of the data set: Antinociceptive activity in ip dosed C57BL/6J mouse assessed as reduction in morphine-induced nociceptive response pre-administered with compound followed by morphine addition measured after 30 mins by hot plate test. In kind it is functional, organism-based. The settings on record: dose 0-60 mg/kg.
Data set [6] relates to Mus musculus. Nature of the data set: Synergistic antinociceptive activity in C57BL/6J mouse assessed as reduction in morphine-induced nociceptive response at 30 mg/kg, ip pre-administered with compound followed by morphine addition measured after 30 mins in presence of PRE-084 by hot plate test. It counts as functional, organism-based.
Data set [7] is described as follows: AUClast in C57BL/6J mouse at 10 mg/kg, ip measured after 24 hrs by LC-MS/MS analysis. It counts as ADME, organism-based. Also on record: time 24 hrs, dose 10 mg/kg, route ip. The note with it: in vivo.
A short description of data set [8]: Drug concentration in plasma of C57BL/6J mouse at 10 mg/kg, ip measured after 4 hrs by LC-MS/MS analysis. In kind it is ADME, organism-based.
Data set [9] is described as follows: Drug concentration in plasma of C57BL/6J mouse at 10 mg/kg, ip measured after 1 hrs by LC-MS/MS analysis. In kind it is ADME, organism-based.
Data set [10] has as its target Sigma non-opioid intracellular receptor 1 (Homo sapiens, UniProt Q99720). The experiment in a line: Antagonist activity at sigma1 receptor (unknown origin).
Data set [11] can be described thus: Drug concentration in brain of C57BL/6J mouse at 10 mg/kg, ip measured after 4 hrs by LC-MS/MS analysis. In kind it is ADME, organism-based. The note with it: read-out: Drug uptake.
For data set [12], the target named is Sigma intracellular receptor 2 (Homo sapiens, UniProt Q5BJF2). Nature of the data set: Antagonist activity at sigma2 receptor (unknown origin).
Data set [13] is described as follows: Ratio of drug concentration in brain to plasma in C57BL/6J mouse at 10 mg/kg, ip measured after 4 hrs by LC-MS/MS analysis. It counts as ADME, organism-based. The settings on record: read-out: BPR.
Data set [14] deals with Mus musculus. Nature of the data set: Synergistic antinociceptive activity in C57BL/6J mouse assessed as reduction in morphine-induced nociceptive response at 30 mg/kg, ip pre-administered with compound followed by morphine addition measured after 30 mins in presence of naloxone by hot plate test. It counts as functional, organism-based.
The nature of data set [15]: Observed MRT(0 to infinity) in C57BL/6J mouse at 10 mg/kg, ip measured after 24 hrs by LC-MS/MS analysis. In kind it is ADME, organism-based. The settings on record: in vivo.
Data set [16] in a line: Half life in C57BL/6J mouse at 10 mg/kg, ip measured after 24 hrs by LC-MS/MS analysis. In kind it is ADME, organism-based. The note with it: in vivo.
Data set [17] concerns Mus musculus. The experiment in a line: Reversal of morphine tolerance in morphine tolerant C57BL/6J mouse assessed as maximum possible effect of antinociception at 30 mg/kg, ip pre-treated with morphine followed by compound addition on day 4 in presence of PRE-084 by hot plate test. In kind it is functional, organism-based.
Data set [18] in a line: Drug concentration in brain of C57BL/6J mouse at 10 mg/kg, ip measured after 1 hrs by LC-MS/MS analysis. In kind it is ADME, organism-based. The settings on record: read-out: Drug uptake.
Data set [19] can be described thus: Cmax in C57BL/6J mouse at 10 mg/kg, ip measured after 24 hrs by LC-MS/MS analysis. In kind it is ADME, organism-based. Also on record: time 24 hrs, dose 10 mg/kg, route ip. The note with it: in vivo.
The nature of data set [20]: Observed AUC(0 to infinity) in C57BL/6J mouse at 10 mg/kg, ip measured after 24 hrs by LC-MS/MS analysis. In kind it is ADME, organism-based. Further details: time 24 hrs, dose 10 mg/kg, route ip. The note with it: in vivo.
The subject of data set [21] is Mus musculus. Nature of the data set: Antinociceptive activity in C57BL/6J mouse assessed as reduction in nociceptive response at 30 mg/kg, ip measured after 30 mins by hot plate test. In kind it is functional, organism-based.
Data set [22] in a line: Ratio of drug concentration in brain to plasma in C57BL/6J mouse at 10 mg/kg, ip measured after 1 hrs by LC-MS/MS analysis. In kind it is ADME, organism-based. The note with it: read-out: BPR.
The nature of data set [23]: Tmax in C57BL/6J mouse at 10 mg/kg, ip measured after 24 hrs by LC-MS/MS analysis. It counts as ADME, organism-based. The note with it: in vivo.
Data set [24] addresses T1, Sigma non-opioid intracellular receptor 1. Nature of the data set: Displacement of [3H]-pentazocine from sigma1 receptor in guinea pig brain membrane assessed as inhibition constant in presence of phenytoin by liquid scintillation counting analysis. It counts as cell membranes.
Data set [25] has as its target Mu-type opioid receptor (Homo sapiens) (UniProt P35372). Nature of the data set: Displacement of [3H]-DAMGO from human MOR expressed in CHO cells at 1 uM incubated for 90 mins by beta-scintillation counting analysis. In kind it is cell-based.

Calls of active or inactive are those of the source. No cut-off for these calls is given here.

We go through 19 compounds from ChEMBL document CHEMBL5346905, “2,6-diazaspiro[3.4]octan-7-one derivatives as potent sigma-1 receptor antagonists that enhanced the antinociceptive effect of morphine and rescued morphine tolerance” (Eur J Med Chem, 2023).

T1 sequence (Q60492 whole entry): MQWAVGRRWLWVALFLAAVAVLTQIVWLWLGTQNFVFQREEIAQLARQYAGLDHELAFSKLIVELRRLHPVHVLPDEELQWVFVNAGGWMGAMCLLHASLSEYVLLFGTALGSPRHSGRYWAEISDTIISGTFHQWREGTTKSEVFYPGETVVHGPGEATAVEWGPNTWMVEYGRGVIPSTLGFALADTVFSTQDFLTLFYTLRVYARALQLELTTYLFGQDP
Chain of Sigma non-opioid intracellular receptor 1 (Homo sapiens, UniProt Q99720) (Q99720 whole entry): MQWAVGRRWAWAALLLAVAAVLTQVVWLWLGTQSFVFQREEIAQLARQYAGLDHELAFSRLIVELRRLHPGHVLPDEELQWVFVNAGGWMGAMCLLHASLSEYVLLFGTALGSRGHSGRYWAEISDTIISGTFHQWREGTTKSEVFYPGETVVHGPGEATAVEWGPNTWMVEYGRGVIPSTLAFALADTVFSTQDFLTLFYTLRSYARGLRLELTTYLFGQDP
Chain of Mu-type opioid receptor (Homo sapiens) (P35372 whole entry): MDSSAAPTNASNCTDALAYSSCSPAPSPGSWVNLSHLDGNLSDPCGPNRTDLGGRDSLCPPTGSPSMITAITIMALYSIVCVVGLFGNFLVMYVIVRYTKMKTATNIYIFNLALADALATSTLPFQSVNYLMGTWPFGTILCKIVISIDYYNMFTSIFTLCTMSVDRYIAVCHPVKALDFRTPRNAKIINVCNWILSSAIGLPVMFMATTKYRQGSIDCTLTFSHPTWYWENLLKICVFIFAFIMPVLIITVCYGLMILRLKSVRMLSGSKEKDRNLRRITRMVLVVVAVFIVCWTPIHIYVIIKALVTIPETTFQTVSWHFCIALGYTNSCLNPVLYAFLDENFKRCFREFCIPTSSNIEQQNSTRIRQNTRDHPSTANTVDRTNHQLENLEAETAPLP
Chain of Sigma intracellular receptor 2 (Q5BJF2 whole entry): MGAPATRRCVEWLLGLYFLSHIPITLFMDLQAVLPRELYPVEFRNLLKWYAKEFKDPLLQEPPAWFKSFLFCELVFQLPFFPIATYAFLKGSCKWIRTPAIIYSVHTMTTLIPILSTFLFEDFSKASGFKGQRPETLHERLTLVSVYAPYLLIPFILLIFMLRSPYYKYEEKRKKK

What is called Ki is the equilibrium dissociation constant of an inhibitor or competing ligand from its target. In the case of `O=C1CC2(CN(CCCc3ccc(F)cc3)C2)CN1c1ccccc1`, the Ki in [1] was determined as 16.8 nM.
In data set [1], `CC(Cc1ccccc1)N1CC2(CC(=O)N(c3ccccc3)C2)C1` (stereo not given) yielded a Ki of 40.5 nM.
Compound `O=C1CC2(CN(CCc3cccc(F)c3)C2)CN1c1ccccc1` displayed a Ki in data set [1] of 393 nM.
Compound `Cc1cc(OCCN2CCOCC2)nn1-c1ccc2ccccc2c1` came in with a Ki in [1] of 12.9 nM. Moreover, the result in data set [2], in data set [3] and in data set [4] was inactive.
`O=C1CC2(CN(CCCc3ccccc3)C2)CN1Cc1ccccc1` displayed a Ki in [1] of 83.7 nM.
On the same count and under the same terms, then `Cc1cccc(CCCN2CC3(CC(=O)N(c4ccccc4)C3)C2)c1`, with 33 nM; and `O=C1CC2(CN(CCCc3ccccc3F)C2)CN1c1ccccc1`, with 44.5 nM.
On the same count and under the same terms, under `O=C1CC2(CN(CCC3CCCCC3)C2)CN1c1ccc(F)cc1` stands 38.8 nM; under `O=C1CC2(CN(CCC3CCCCC3)C2)CN1c1ccccc1`, 42.7 nM.
Still for that read-out and setting: under `O=C1CC2(CN(CCCc3ccccc3)C2)CN1c1ccccc1` stands 48.7 nM; under `Cc1ccc(N2CC3(CC2=O)CN(CCCc2ccccc2)C3)cc1`, 68.3 nM; under `O=C1CC2(CN(CCCc3ccccc3)C2)CN1c1ccc(F)cc1`, 34.9 nM.
Regarding `O=C1CC2(CN(CCc3ccccc3)C2)CN1c1ccccc1`, in [1], the inhibitory constant (Ki) worked out at 175 nM.
The same measure, in the same setting: then `O=C1CC2(CN(CCc3ccc4ccccc4c3)C2)CN1c1ccccc1`, with 60.4 nM; and `Cc1cccc(N2CC3(CC2=O)CN(CCCc2ccccc2)C3)c1`, with 49.7 nM; and `O=C1CC2(CN(CCCc3cccc(F)c3)C2)CN1c1ccccc1`, with 26.8 nM.
Compound `Cc1cccc(CCN2CC3(CC(=O)N(c4ccc(F)cc4)C3)C2)c1` came in with an inhibition constant Ki in data set [1] of 47.6 nM.
With `CC(Cc1ccccc1)N1CC2(CC(=O)N(c3ccc(F)cc3)C2)C1` (stereo not given), affinity in [1] was put at a Ki of 181 nM.
Usually AUC(0-t) stands for exposure summed from dosing to a finite time, without extrapolation to infinity. As a reminder, the IC50 is the concentration needed to halve the response being measured. A higher IC50 goes with lower potency. For orientation: MRT inf means the average time that molecules of a dose stay in the body. What is called half-life is the time in which the quantity being followed falls by half. Higher therefore signals slow decline. In general, ED50 refers to the dose at which the effect has come halfway, by size or by number of responders. For orientation: Cmax means the highest concentration seen after dosing. In general, AUC(0-inf) refers to the area under the concentration-time curve extrapolated to infinity. As usually defined, the Tmax is the time at which the peak concentration occurs. Consider `Cc1ccc(CCCN2CC3(CC(=O)N(c4ccccc4)C3)C2)cc1`, for which the inhibition constant (Ki) in data set [1] was determined as 14.5 nM; in data set [24] it was 37.2 nM. Moreover, the Activity result in data set [5] is “Dose-Dependent Effect”; in data set [25] it was 16.5%. The result in data set [6], in data set [14], in data set [17] and in data set [21] was inactive. Also, the exposure AUC(0-t) at 24 h in data set [7] is 2240 ng·h/mL. Besides, the concentration at 4 h in data set [8] came out at 78 ng/mL; in [11], 609 ng/g. Moreover, the concentration at 1 h in data set [9] was determined as 513 ng/mL; in data set [18], 3790 ng/g. Moreover, the IC50 was 19.1 nM in data set [10] and 227 nM in [12]. For the same compound, the Kp at 4 h in data set [13] was 7.8. Further, in data set [2], the MPE turned out to be 70.5%. In data set [15], this compound had an MRT inf of 2.08 h. Also, the half-life in data set [16] was 1.42 h. Moreover, the 50% effective dose (ED50) in [4] (0.5 h) came out at 2.3 mg/kg. Besides, the Cmax in [19] was 990 ng/mL. Further, the area under the curve AUC(0-inf) in [20] was found to be 2290 ng·h/mL. For the same compound, the Kp at 1 h in data set [22] is 7.38. Further, the Tmax in data set [23] was 0.25 h.
